Laboratory results as given in ChEMBL document CHEMBL3758174, “Discovery and Characterization of 2-Acylaminoimidazole Microsomal Prostaglandin E Synthase-1 Inhibitors” (J Med Chem, 2016).
≈ marks a conversion by molar mass, not a printed value. Calls of active or inactive are those of the source. The calls are words filed in the database; no cut-off is given here.

Tests used:
CYP3A4 [1] = target: T1, CYP3A4 (Homo sapiens, UniProt P08684); assay: Inhibition of microsomal CYP3A4 (unknown origin) using bufuralol/midazolam/diclofinac as substrate assessed as 1-hydroxybufuralol maleate-d9/alpha-hydroxymidazolam-d4/[13C6]-4-hydroxydiclofinac formation at 10 uM pre-incubated for 10 mins before NADPH addition by LC-MS/MS analysis; assay type: ADME; conditions: microsomes, probe bufuralol/midazolam/diclofinac
Prostaglandin E synthase [2] = target: T2, Prostaglandin E synthase (Homo sapiens, UniProt O14684); assay: Inhibition of human microsomal PGES1 expressed in 293E cells by LC/MS/MS analysis; assay type: cell-based
T2 sequence (O14684 whole entry): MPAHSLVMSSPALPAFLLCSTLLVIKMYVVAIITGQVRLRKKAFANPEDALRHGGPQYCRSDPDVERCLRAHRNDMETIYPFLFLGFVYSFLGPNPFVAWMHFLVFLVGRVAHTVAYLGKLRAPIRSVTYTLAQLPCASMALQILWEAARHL

CYP3A4 [3] = target: T1, CYP3A4; assay: Time-dependent inhibition of microsomal CYP3A4 (unknown origin) using midazolam as substrate assessed as alpha-hydroxymidazolam-d4 at 10 uM pre-incubated for 12 mins before NADPH addition formation after 30 mins by LC-MS/MS analysis; assay type: ADME; conditions: microsomes, probe midazolam
Prostaglandin E synthase [4] = target: T2, Prostaglandin E synthase; assay: (§1) Inhibition of mPGES1 in LPS-induced human whole blood assessed as suppression of PGE2 response after 20 to 24 hrs by LC-MS/MS analysis; assay type: tissue-based
[5] = target: T3, Prostaglandin E synthase (Homo sapiens) (UniProt O14684); assay: as §1; assay type: tissue-based
T3 sequence (whole entry): T2 sequence (O14684 whole entry)

Prostaglandin E synthase [6] = target: T2, Prostaglandin E synthase; assay: Inhibition of mPGES1 in rhIL-1beta-stimulated human A549 cells assessed as PGE2 level treated for 18 hrs after 30 mins pre-incubation with rhIL-1beta by EIA method; assay type: cell-based
[7] = target: T4, Cyclooxygenase (Homo sapiens) (UniProt P35354+P23219); assay: Inhibition of COX in human whole blood assessed as decrease in PGF2alpha production; assay type: tissue-based
[8] = target: T4, Cyclooxygenase (Homo sapiens); assay: Inhibition of COX in human A549 cells assessed as reduction in PGE2 production; assay type: cell-based
[9] = target: T4, Cyclooxygenase (Homo sapiens); assay: Inhibition of COX in human whole blood assessed as decrease in TXB2 production; assay type: tissue-based
[10] = target: T4, Cyclooxygenase (Homo sapiens); assay: Inhibition of COX in human A549 cells assessed as reduction in PGE2 production at 10 uM; assay type: cell-based
[11] = target: T4, Cyclooxygenase (Homo sapiens); assay: Inhibition of COX in human whole blood assessed as decrease in TXB2 production up to 30 uM; assay type: tissue-based
[12] = Stability of compound at 70 degC/75% RH; assay type: physicochemical
[13] = Stability of compound at 40 degC/75% RH; assay type: physicochemical
[14] = target: T5, Prostaglandin E synthase (Canis lupus familiaris) (UniProt A0SYQ0); assay: (§2) Inhibition of mPGES1 in LPS-induced dog whole blood assessed as suppression of PGE2 response pre-incubated for 30 mins followed by LPS addition and measured after 5 hrs by LC-MS/MS analysis; assay type: tissue-based
T5 sequence (whole entry): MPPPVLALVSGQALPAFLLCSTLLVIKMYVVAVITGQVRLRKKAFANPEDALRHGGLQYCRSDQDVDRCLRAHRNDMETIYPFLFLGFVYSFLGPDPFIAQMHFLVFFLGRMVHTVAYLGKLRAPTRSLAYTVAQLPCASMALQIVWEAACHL

[15] = target: T6, Prostaglandin G/H synthase 2 (Homo sapiens) (UniProt P35354); assay: Inhibition of COX-2 (unknown origin) at 10 uM
T6 sequence (whole entry): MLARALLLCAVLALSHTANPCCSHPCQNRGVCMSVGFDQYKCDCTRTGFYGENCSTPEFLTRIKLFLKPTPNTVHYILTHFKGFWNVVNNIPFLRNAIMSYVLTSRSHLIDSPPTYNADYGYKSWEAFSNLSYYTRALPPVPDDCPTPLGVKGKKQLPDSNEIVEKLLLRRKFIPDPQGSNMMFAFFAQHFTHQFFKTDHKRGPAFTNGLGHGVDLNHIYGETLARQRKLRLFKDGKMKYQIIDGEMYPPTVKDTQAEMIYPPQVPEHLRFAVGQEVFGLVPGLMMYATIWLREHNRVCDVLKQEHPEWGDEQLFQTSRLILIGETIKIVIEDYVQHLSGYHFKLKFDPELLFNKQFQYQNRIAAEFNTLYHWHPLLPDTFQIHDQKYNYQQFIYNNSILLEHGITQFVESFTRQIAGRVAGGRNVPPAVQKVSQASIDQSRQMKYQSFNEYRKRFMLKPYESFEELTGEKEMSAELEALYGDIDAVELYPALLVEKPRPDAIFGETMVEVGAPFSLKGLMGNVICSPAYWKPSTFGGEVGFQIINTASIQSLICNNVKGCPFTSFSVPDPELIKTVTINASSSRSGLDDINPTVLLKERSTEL

[16] = target: Prostaglandin G/H synthase 1 (Homo sapiens) (UniProt P23219); assay: Inhibition of COX-1 (unknown origin) at 10 uM
hERG [17] = target: T7, hERG (Homo sapiens, UniProt Q12809); assay: Inhibition of human ERG at 100 uM
hERG [18] = target: T7, hERG; assay: Inhibition of human ERG at 10 uM
Plasma = assay: Plasma concentration in beagle dog at 2 mg/kg, po after; assay type: ADME, organism-based, Canis lupus familiaris; conditions: in vivo
[19] = target: Prostaglandin G/H synthase 1 (Homo sapiens) (UniProt P23219); assay: Inhibition of COX1 (unknown origin) at 100 uM
[20] = Oral bioavailability in beagle dog at 0.5 mg/kg after 0.25 to 24 hrs by LC-MS/MS analysis; assay type: ADME, organism-based, Canis lupus familiaris; conditions: in vivo
[21] = Inhibition of rat microsomal PGES1 expressed in 293E cells by LC/MS/MS analysis; assay type: cell-based
Prostaglandin E synthase [22] = target: T8, Prostaglandin E synthase (Canis lupus familiaris, UniProt A0SYQ0); assay: as §2; assay type: tissue-based
T8 sequence (A0SYQ0 whole entry): T5 sequence (whole entry)

[23] = target: T6, Prostaglandin G/H synthase 2 (Homo sapiens); assay: Inhibition of COX2 (unknown origin) at 30 uM
[24] = Tmax in beagle dog at 2 mg/kg,po after 0.25 to 24 hrs by LC-MS/MS analysis; assay type: ADME, organism-based, Canis lupus familiaris; conditions: in vivo
[25] = Clearance in beagle dog at 2 mg/kg,po or 0.5 mg/kg, iv after 0.25 to 24 hrs by LC-MS/MS analysis; assay type: ADME, organism-based, Canis lupus familiaris; conditions: in vivo
[26] = Volume of distribution at steady state in beagle dog at 2 mg/kg,po or 0.5 mg/kg, iv after 0.25 to 24 hrs by LC-MS/MS analysis; assay type: ADME, organism-based, Canis lupus familiaris; conditions: in vivo, read-out: Vdss
[27] = Oral bioavailability in beagle dog at 2 mg/kg after 0.25 to 24 hrs by LC-MS/MS analysis; assay type: ADME, organism-based, Canis lupus familiaris; conditions: in vivo
[28] = Solubility of compound in FasSIF at 2 mg at room temperature after 24 hrs by HPLC analysis; assay type: physicochemical
[29] = Plasma concentration in beagle dog at 2 mg/kg, po after 24 hrs by LC-MS/MS analysis; assay type: ADME, organism-based, Canis lupus familiaris
[30] = target: Voltage-gated inwardly rectifying potassium channel KCNH2 (Homo sapiens, UniProt Q12809); assay: Inhibition of human ERG
Chain of Voltage-gated inwardly rectifying potassium channel KCNH2 (Q12809 whole entry): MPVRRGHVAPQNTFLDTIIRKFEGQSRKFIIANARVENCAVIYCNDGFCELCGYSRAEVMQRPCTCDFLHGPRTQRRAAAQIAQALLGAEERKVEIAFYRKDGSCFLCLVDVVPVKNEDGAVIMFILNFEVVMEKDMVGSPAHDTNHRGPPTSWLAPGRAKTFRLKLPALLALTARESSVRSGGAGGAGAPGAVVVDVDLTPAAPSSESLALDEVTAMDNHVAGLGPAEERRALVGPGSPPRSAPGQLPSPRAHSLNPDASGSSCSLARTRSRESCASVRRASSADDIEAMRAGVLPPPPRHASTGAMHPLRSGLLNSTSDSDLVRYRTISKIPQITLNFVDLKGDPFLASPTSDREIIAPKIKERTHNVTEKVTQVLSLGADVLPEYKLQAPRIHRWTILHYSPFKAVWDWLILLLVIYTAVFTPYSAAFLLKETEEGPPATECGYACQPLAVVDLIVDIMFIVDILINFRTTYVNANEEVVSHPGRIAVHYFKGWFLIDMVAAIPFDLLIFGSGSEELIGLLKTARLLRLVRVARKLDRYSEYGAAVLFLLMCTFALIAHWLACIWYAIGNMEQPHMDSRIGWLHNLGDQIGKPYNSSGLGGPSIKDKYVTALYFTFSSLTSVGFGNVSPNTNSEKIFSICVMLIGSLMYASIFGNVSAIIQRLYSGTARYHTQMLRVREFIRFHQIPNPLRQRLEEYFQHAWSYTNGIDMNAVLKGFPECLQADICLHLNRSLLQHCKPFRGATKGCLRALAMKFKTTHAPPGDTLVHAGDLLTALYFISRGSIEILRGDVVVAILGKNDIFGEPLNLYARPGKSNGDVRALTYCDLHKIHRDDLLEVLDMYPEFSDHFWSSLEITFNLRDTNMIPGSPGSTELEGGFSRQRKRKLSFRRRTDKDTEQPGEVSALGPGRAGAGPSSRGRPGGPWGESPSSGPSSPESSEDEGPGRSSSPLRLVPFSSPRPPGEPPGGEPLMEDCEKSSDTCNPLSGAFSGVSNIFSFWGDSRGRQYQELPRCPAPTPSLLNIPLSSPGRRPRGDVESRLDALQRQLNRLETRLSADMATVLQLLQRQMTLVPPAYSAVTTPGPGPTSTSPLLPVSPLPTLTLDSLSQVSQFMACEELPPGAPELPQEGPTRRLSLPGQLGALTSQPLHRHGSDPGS

T4 sequence (P23219 whole entry, looked up, one chain of several): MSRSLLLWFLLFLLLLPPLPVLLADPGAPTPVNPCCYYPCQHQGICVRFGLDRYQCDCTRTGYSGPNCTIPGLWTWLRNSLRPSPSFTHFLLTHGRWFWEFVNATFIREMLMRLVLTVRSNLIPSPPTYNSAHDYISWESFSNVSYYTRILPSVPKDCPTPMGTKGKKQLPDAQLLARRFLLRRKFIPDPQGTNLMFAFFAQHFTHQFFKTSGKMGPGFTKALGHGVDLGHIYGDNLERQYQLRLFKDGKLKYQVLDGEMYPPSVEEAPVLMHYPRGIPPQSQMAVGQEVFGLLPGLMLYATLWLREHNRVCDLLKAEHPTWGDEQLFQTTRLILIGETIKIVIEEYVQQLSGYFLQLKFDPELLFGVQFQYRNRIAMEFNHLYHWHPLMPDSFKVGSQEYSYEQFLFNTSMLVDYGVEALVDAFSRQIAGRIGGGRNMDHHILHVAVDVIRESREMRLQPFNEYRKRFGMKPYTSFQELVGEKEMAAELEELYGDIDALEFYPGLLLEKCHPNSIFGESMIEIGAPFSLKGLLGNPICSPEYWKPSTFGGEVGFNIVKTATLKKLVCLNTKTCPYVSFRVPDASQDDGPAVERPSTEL
T1 sequence (P08684 whole entry): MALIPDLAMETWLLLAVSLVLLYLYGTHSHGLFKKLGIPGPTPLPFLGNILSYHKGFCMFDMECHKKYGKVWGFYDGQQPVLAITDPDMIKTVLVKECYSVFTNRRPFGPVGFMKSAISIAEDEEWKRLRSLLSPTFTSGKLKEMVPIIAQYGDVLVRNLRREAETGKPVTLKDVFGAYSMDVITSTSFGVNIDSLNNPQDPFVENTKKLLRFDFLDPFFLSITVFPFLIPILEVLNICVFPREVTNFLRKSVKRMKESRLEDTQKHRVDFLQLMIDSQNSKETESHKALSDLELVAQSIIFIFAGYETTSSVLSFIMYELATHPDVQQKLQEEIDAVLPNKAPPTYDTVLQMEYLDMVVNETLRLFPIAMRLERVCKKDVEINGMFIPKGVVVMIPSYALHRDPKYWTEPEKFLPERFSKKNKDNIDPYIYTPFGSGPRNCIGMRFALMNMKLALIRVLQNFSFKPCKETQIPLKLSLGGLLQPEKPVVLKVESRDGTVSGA
T7 sequence (Q12809 whole entry): as the sequence (Q12809 whole entry) above
Chain of Prostaglandin G/H synthase 1 (Homo sapiens) (P23219 whole entry): as the sequence (P23219 whole entry, looked up, one chain of several) above

Row | Structure (SMILES) | inhibition at 10 µM (CYP3A4 [1]) [%] | IC50 (Prostaglandin E synthase [2]) [µM] | inhibition at 0.5 h, 10 µM (CYP3A4 [3]) [%] | IC50 (Prostaglandin E synthase [4]) [µM] | IC80 [5] [µM] | IC50 (Prostaglandin E synthase [6]) [µM] | inhibition [10] | inhibition [11] | also measured
1 | Cc1nc(NC(=O)c2cc(CNC(=O)C(C)C)cnc2C(F)F)[nH]c1-c1ccc(Cl)cc1 | 0 | < 0.003 | 27 | 0.091 | 0.48 | 0.039 |  |  | 
2 | CC(C)C(=O)NCc1cnc(C(F)F)c(C(=O)Nc2ncc(-c3ccc(Cl)cc3)[nH]2)c1 | 22 | < 0.003 | 72 | 0.029 | 0.146 | 0.037 |  |  | inhibition [7]: inactive; inhibition [8]: inactive; inhibition [9]: inactive
3 | CC(C)(C)C(=O)NCc1ccc(Br)c(C(=O)Nc2ncc[nH]2)c1 |  |  |  |  |  |  | inactive | inactive | 
4 | Cc1nc(NC(=O)c2cc(CNC(=O)C(C)C)cnc2C(F)F)[nH]c1-c1ccc(C(F)(F)F)cc1.O=P(O)(O)O |  |  |  |  |  |  |  |  | Stability [12]: 2 weeks; Stability [13]: 4 weeks
5 | Cc1nc(NC(=O)c2cc(CNC(=O)C(C)C)cnc2C(F)F)[nH]c1-c1ccc(C(F)(F)F)cc1 [listing 1 of 2 here] |  |  |  |  | 0.069 |  |  |  | IC80 [14]: 0.703 µM; inhibition [15]: inactive; inhibition [16]: inactive
6 | CC(C)C(=O)NCc1ccc(C(F)F)c(C(=O)Nc2ncc(-c3ccc(Cl)cc3)[nH]2)c1 | 44 | < 0.003 | 75 | 0.338 | 0.994 | 0.019 |  |  | inhibition [7]: inactive; inhibition [8]: inactive; inhibition [9]: inactive
7 | CC(=O)NCc1cnc(C(F)F)c(C(=O)Nc2nc(C)c(-c3ccc(C(F)(F)F)cc3)[nH]2)c1 | 19 | 0.074 | 8 |  |  | 0.72 |  |  | 
8 | Cc1c(CC(C)(C)C(=O)O)n(Cc2ccc(Cl)cc2)c2ccc(-c3ccc(-c4ccccc4)c(F)c3)cc12 | 46 |  |  |  |  |  |  |  | 
9 | CCC(=O)NCc1cnc(C(F)F)c(C(=O)Nc2nc(C)c(-c3ccc(C(F)(F)F)cc3)[nH]2)c1 | 0 | 0.0103 | 15 | 0.374 | 0.991 | 0.098 |  |  | 
10 | Cc1nc(NC(=O)c2cc(CNC(=O)C(C)C)cnc2C(F)F)[nH]c1-c1ccc(C(F)(F)F)cc1 [listing 2 of 2 here] | 0 | 0.0009 | 23 |  |  |  |  |  | solubility at 24 h [28]: 7 µg/mL (≈ 14.1 µM); concentration at 24 h [29]: > 200 nM; IC50 [21]: 33.9 µM; IC50 (Prostaglandin E synthase [22]): 0.139 µM; IC50 [30]: 82.6 µM; Ki [30]: 41.3 µM; bioavailability [27]: 37%
11 | N#Cc1cccc(C#N)c1-c1nc2c3ccc(Cl)cc3c3ccccc3c2[nH]1 | 32 |  |  |  |  |  |  |  | 

More lines, main results first:

Row | inhibition at 10 µM (CYP3A4 [1]) [%] | IC50 (Prostaglandin E synthase [2]) [µM] | inhibition at 0.5 h, 10 µM (CYP3A4 [3]) [%] | IC50 (Prostaglandin E synthase [4]) [µM] | IC80 [5] [µM] | IC50 (Prostaglandin E synthase [6]) [µM] | inhibition [10] | inhibition [11] | Structure (SMILES) | also measured
12 |  | 0.385 |  | 0.853 | 9.37 | 1.23 | inactive | inactive | CCC(C)(C)C(=O)NCc1ccc(Cl)c(C(=O)Nc2ncc[nH]2)c1 | 
13 |  | 3.67 |  | 9.53 | 57.4 | > 10 | inactive | inactive | CC(C)C(=O)NCc1cc(C(=O)Nc2ncc[nH]2)c(Cl)cc1F | 
14 |  | 1.12 |  | 10.5 | 21.1 | 8.86 | inactive | inactive | CC[C@H](C)C(=O)NCc1ccc(C(F)F)c(C(=O)Nc2ncc[nH]2)c1 | 
15 |  |  |  |  | 2.44 |  | inactive | inactive | CC(C)(C)C(=O)NCc1ccc(Cl)c(C(=O)Nc2ncc[nH]2)c1 [LY-3031207] | inhibition at 100 µM (hERG [17]): 14%; inhibition at 10 µM (hERG [18]): -4%; concentration (Plasma): > 1000 nM; inhibition [19]: 9%; bioavailability [20]: 60%; IC50 [21]: > 1000 µM; IC80 [14]: 1.84 µM; IC50 (Prostaglandin E synthase [22]): 0.555 µM
16 |  | 3.11 |  | 2.43 | 9.08 | 4.62 | inactive | inactive | Cc1ccc(CNC(=O)C(C)(C)C)cc1C(=O)Nc1ncc[nH]1 | inhibition [23]: 16%
17 |  | 2.46 | 20 | 4.61 | 31 | 3.15 | inactive | inactive | CC(C)C(=O)NCc1ccc(C(F)F)c(C(=O)Nc2ncc[nH]2)c1 | Tmax [24]: 15 min; clearance [25]: 26.1 mL/min/kg; Vd [26]: 2.27 L/kg; bioavailability [27]: 100%
18 |  | 0.676 |  | 1.43 | 33.7 | 3.25 | inactive | inactive | CC(C)(C)C(=O)NCc1ccc(C(F)F)c(C(=O)Nc2ncc[nH]2)c1 | 
19 |  | 2.32 |  | 13 | 132 | 8.85 | inactive | inactive | Cc1cc(Cl)c(C(=O)Nc2ncc[nH]2)cc1CNC(=O)C(C)C | 
20 |  |  |  |  | 8.8 |  | inactive | inactive | CC(C)C(=O)NCc1ccc(Cl)c(C(=O)Nc2ncc[nH]2)c1 | 
21 |  | 1.08 |  | 2.14 | 10.5 | 3.23 | inactive | inactive | CC(C)(C)C(=O)NCc1ccc(C(F)(F)F)c(C(=O)Nc2ncc[nH]2)c1 | 
